# Measured values: patent US8778919B2, “Cyclic anilino—pyridinotriazines” (Janssen Pharmaceutica NV, priority 2005, dated 2014)
# pIC50: −log10 of the molar value.
# Legend:
# Type in all cases: biochemical
# CDK3/cyclinE (h) = CDK3/cyclinE (h) (Homo sapiens, UniProt Q00526); test: Kinase profiling C3.5 CDK3/cyclinE human; conditions: test concentration of 10^−6 M
# Outline: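 Human CDK3/cyclinE (5-10 mU) phosphorylated 0.1 mg/ml histone H1 in 8 mM MOPS pH 7.0, 0.2 mM EDTA and 10 mM MgAcetate with [γ-33P]ATP. Reaction ran 40 min at room temperature and was stopped with phosphoric acid. Substrate-bound radioactivity was captured on P30 filtermat and measured by scintillation counting.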
# CDK2/cyclinE (h) = CDK2/cyclinE (h) (Homo sapiens, UniProt P24941); test: Kinase profiling C3.4 CDK2/cyclinE human; conditions: test concentration of 10^−6 M
# Outline: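 Radiometric filter-binding assay: 5-10 mU enzyme with 0.1 mg/ml histone H1 in 8 mM MOPS pH 7.0, 0.2 mM EDTA, 10 mM Mg acetate and [γ-33P]ATP. Incubated 40 min at room temperature, stopped with phosphoric acid. Substrate-bound 33P counted on P30 filtermat.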
# GSK-3α = GSK-3α (Homo sapiens, UniProt P49840); test: GSK-3 kinase assay (C1), GSK-3α; conditions: 1 μM ATP; for pIC50: read-out: C1 Score α
# Outline: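 Radiometric SPA at room temperature in 25 mM Tris pH 7.4 with 10 mM MgCl2, 1 mM DTT, 5.7 ng/μl GSK-3β or 0.25 ng/μl GSK-3α, 5 μM biotinylated CREB peptide and 1 μM ATP plus ^33P-ATP. Stopped after 1 h; IC50 from dose-response versus no-compound control, reported as pIC50 score bands.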
# CDK1/cyclinB (h) = CDK1/cyclinB (h) (Homo sapiens, UniProt P06493); test: Kinase profiling C3.2 CDK1/cyclinB human; conditions: test concentration of 10^−6 M
# Outline: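 Radiometric filter-binding assay: human CDK1/cyclinB (5-10 mU) with 0.1 mg/ml histone H1 substrate and [γ-33P]ATP in 8 mM MOPS pH 7.0, 10 mM Mg acetate, 40 min at room temperature. Stopped with phosphoric acid; substrate-bound 33P counted on P30 filtermat by scintillation.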
# CDK7/cyclinH/MAT1 (h) = CDK7/cyclinH/MAT1 (h) (Homo sapiens, UniProt P50613); test: Kinase profiling C3.8 CDK7/cyclinH/MAT1 human; conditions: CDK7/cyclinH/MAT1, test concentration of 10^−6 M
# Outline: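 Human CDK7/cyclinH/MAT1 (5-10 mU) incubated 40 min at room temperature in 8 mM MOPS pH 7.0, 0.2 mM EDTA, 10 mM Mg acetate, 500 μM peptide substrate and [γ-^33P]ATP. Stopped with phosphoric acid; substrate phosphorylation measured by filter binding and scintillation counting.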
# CDK2/cyclinA (h) = CDK2/cyclinA (h) (Homo sapiens, UniProt P24941); test: Kinase profiling C3.3 CDK2/cyclinA human; conditions: test concentration of 10^−6 M
# Outline: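 Human CDK2/cyclinA (5-10 mU) phosphorylates 0.1 mg/ml histone H1 in 8 mM MOPS pH 7.0, EDTA, 10 mM Mg acetate with [γ-33P]ATP, 40 min at room temperature. After phosphoric acid stop, filter-bound 33P counted by scintillation.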
# Sequence of GSK-3α (P49840 whole entry, species assumed): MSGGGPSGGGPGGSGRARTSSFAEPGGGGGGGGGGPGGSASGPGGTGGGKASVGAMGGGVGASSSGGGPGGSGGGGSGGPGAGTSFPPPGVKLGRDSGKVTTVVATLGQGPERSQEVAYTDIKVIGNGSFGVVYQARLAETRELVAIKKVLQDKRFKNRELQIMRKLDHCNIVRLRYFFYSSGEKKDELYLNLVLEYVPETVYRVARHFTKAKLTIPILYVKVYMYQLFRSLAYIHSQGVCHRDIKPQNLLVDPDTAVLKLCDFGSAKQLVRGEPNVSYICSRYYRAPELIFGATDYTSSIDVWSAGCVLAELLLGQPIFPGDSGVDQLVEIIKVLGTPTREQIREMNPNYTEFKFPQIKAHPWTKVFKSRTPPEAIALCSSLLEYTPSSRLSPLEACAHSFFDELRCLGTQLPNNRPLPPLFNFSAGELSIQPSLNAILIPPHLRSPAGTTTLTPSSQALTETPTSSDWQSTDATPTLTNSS
# Sequence of CDK7/cyclinH/MAT1 (h) (P50613 whole entry): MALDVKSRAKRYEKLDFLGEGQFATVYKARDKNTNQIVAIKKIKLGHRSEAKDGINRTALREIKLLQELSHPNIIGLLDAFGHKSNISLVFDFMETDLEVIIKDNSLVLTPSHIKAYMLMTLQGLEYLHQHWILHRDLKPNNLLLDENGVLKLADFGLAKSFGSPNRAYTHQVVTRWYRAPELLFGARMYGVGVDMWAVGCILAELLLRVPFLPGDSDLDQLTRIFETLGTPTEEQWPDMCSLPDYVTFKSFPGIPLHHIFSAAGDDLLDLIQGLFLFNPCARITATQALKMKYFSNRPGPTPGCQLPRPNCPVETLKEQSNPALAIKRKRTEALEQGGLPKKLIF
# Sequence of CDK7/cyclinH/MAT1 (h) (P51946 whole entry partner): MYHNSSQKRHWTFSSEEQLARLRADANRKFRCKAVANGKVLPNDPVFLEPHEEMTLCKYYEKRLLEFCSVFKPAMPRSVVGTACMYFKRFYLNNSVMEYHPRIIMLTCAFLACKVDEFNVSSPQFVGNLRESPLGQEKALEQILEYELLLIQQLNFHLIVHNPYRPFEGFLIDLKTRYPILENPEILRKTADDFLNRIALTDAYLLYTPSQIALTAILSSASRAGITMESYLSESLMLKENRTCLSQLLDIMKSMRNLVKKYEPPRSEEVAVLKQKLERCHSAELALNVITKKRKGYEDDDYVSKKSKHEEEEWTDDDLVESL
# Sequence of CDK7/cyclinH/MAT1 (h) (P51948 whole entry partner): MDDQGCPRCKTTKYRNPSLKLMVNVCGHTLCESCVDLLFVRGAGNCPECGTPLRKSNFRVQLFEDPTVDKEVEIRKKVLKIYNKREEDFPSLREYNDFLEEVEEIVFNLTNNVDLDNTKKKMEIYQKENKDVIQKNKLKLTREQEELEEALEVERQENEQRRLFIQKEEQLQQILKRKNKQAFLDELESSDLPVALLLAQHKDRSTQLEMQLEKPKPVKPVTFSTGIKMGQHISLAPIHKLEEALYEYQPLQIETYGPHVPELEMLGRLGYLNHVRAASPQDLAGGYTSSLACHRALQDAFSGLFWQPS
# Sequence of CDK1/cyclinB (h) (P06493 whole entry): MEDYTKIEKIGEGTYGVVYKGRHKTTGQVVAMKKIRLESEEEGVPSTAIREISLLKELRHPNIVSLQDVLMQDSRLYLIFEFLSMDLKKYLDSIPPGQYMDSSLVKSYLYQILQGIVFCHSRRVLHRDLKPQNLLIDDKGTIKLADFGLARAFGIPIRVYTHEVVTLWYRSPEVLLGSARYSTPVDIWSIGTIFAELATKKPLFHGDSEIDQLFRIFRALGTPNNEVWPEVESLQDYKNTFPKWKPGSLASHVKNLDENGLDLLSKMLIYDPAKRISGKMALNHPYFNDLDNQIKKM
# Sequence of CDK1/cyclinB (h) (P14635 whole entry partner): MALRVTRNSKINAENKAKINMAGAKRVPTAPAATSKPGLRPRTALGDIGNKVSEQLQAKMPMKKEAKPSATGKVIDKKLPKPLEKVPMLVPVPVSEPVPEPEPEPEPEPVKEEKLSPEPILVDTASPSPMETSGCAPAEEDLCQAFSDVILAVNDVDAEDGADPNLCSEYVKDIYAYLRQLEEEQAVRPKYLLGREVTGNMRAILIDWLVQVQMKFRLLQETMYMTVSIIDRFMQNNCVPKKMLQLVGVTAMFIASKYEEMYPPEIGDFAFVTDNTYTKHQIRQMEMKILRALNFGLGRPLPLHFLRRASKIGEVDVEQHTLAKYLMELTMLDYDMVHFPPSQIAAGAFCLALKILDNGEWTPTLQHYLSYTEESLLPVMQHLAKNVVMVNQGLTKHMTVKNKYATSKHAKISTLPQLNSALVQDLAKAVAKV
C3.5 score (CDK3/cyclinE (h)),C3.4 score (CDK2/cyclinE (h)),pIC50 (GSK-3α),C3.2 score (CDK1/cyclinB (h)),C3.8 score (CDK7/cyclinH/MAT1 (h)),C3.3 score (CDK2/cyclinA (h)),C1 Score α (GSK-3α),SMILES
4 (Score 4 = >80% inhibition),4 (Score 4 = >80% inhibition),> 8.00,4 (Score 4 = >80% inhibition),4 (Score 4 = >80% inhibition),4 (Score 4 = >80% inhibition),–,CN1CC(=O)NCC#Cc2cc(ccn2)-c2ncnc(n2)Nc2cccc(c2)C1 [Compound 1]
4 (Score 4 = >80% inhibition),4 (Score 4 = >80% inhibition),> 8.00,4 (Score 4 = >80% inhibition),3 (Score 3 = 60-80% inhibition),4 (Score 4 = >80% inhibition),–,CN1CC(=O)NC/C(Cl)=C/c2cc(ccn2)-c2ncnc(n2)Nc2cccc(c2)C1 [Compound 2]
3 (Score 3 = 60-80% inhibition),4 (Score 4 = >80% inhibition),6.00 to 7.00,4 (Score 4 = >80% inhibition),4 (Score 4 = >80% inhibition),4 (Score 4 = >80% inhibition),–,CN1CCC(=O)NCCCc2cc(ccn2)-c2ncnc(n2)Nc2cccc(c2)C1 [Compound 3]
4 (Score 4 = >80% inhibition),4 (Score 4 = >80% inhibition),> 8.00,4 (Score 4 = >80% inhibition),2 (Score 2 = 30-60% inhibition),4 (Score 4 = >80% inhibition),–,CN1CCCc2cc(ccn2)-c2ncnc(n2)Nc2cccc(c2)CNC(=O)C1 [Compound 7]
4 (Score 4 = >80% inhibition),4 (Score 4 = >80% inhibition),–,4 (Score 4 = >80% inhibition),2 (Score 2 = 30-60% inhibition),4 (Score 4 = >80% inhibition),4 (Score 4=pIC50 value>8),CN1CC(=O)NCCCc2cc(ccn2)-c2ncnc(n2)Nc2cccc(c2)C1 [Compound 8]
3 (Score 3 = 60-80% inhibition),4 (Score 4 = >80% inhibition),–,4 (Score 4 = >80% inhibition),2 (Score 2 = 30-60% inhibition),4 (Score 4 = >80% inhibition),4 (Score 4=pIC50 value>8),O=C1CN2CCN(CC2)Cc2cccc(c2)Nc2ncnc(n2)-c2ccnc(c2)CCCN1 [Compound 9]
4 (Score 4 = >80% inhibition),4 (Score 4 = >80% inhibition),> 8.00,4 (Score 4 = >80% inhibition),4 (Score 4 = >80% inhibition),4 (Score 4 = >80% inhibition),–,CN1CC(=O)NCCCc2cc(ccn2)-c2ncnc(n2)Nc2cccc(c2)C1 [Compound 10]
1 (Score 1 = 10-30% inhibition),1 (Score 1 = 10-30% inhibition),6.00 to 7.00,1 (Score 1 = 10-30% inhibition),1 (Score 1 = 10-30% inhibition),1 (Score 1 = 10-30% inhibition),–,CN1CCN(CCN2CCC(=O)NCCCc3cc(ccn3)-c3ncnc(n3)Nc3cccc(c3)C2)CC1 [Compound 11]
3 (Score 3 = 60-80% inhibition),4 (Score 4 = >80% inhibition),6.00 to 7.00,3 (Score 3 = 60-80% inhibition),3 (Score 3 = 60-80% inhibition),4 (Score 4 = >80% inhibition),–,O=C1NCCCc2cc(ccn2)-c2ncnc(n2)Nc2cccc(c2)CN2CCCC12 (stereo not drawn) [Compound 12]
2 (Score 2 = 30-60% inhibition),2 (Score 2 = 30-60% inhibition),6.00 to 7.00,1 (Score 1 = 10-30% inhibition),2 (Score 2 = 30-60% inhibition),2 (Score 2 = 30-60% inhibition),–,CN1CCCC(=O)NCCCc2cc(ccn2)-c2ncnc(n2)Nc2cccc(c2)C1 [Compound 13]
2 (Score 2 = 30-60% inhibition),1 (Score 1 = 10-30% inhibition),7.00 to 8.00,2 (Score 2 = 30-60% inhibition),2 (Score 2 = 30-60% inhibition),4 (Score 4 = >80% inhibition),–,O=C1NCCCc2cc(ccn2)-c2ncnc(n2)Nc2cccc(c2)CN2C[C@H](O)C[C@@H]12 [Compound 14]
1 (Score 1 = 10-30% inhibition),2 (Score 2 = 30-60% inhibition),7.00 to 8.00,1 (Score 1 = 10-30% inhibition),2 (Score 2 = 30-60% inhibition),2 (Score 2 = 30-60% inhibition),–,O=C1NCCCc2cc(ccn2)-c2ncnc(n2)Nc2cccc(c2)CN2CCCC1C2 (stereo not drawn) [Compound 15]
4 (Score 4 = >80% inhibition),4 (Score 4 = >80% inhibition),> 8.00,4 (Score 4 = >80% inhibition),3 (Score 3 = 60-80% inhibition),4 (Score 4 = >80% inhibition),–,CCN1CCCc2cc(ccn2)-c2ncnc(n2)Nc2cccc(c2)CCNC(=O)C1 [Compound 30]
4 (Score 4 = >80% inhibition),4 (Score 4 = >80% inhibition),> 8.00,4 (Score 4 = >80% inhibition),3 (Score 3 = 60-80% inhibition),4 (Score 4 = >80% inhibition),–,CN1CC(=O)NCCCc2cc(ccn2)-c2ncnc(n2)Nc2cc(Cl)cc(c2)C1 [Compound 33]
4 (Score 4 = >80% inhibition),4 (Score 4 = >80% inhibition),> 8.00,4 (Score 4 = >80% inhibition),2 (Score 2 = 30-60% inhibition),4 (Score 4 = >80% inhibition),–,CCN1CC(=O)NCCCc2cc(ccn2)-c2ncnc(n2)Nc2cc(Cl)cc(c2)C1 [Compound 34]
4 (Score 4 = >80% inhibition),4 (Score 4 = >80% inhibition),7.00 to 8.00,4 (Score 4 = >80% inhibition),4 (Score 4 = >80% inhibition),4 (Score 4 = >80% inhibition),–,O=C1CCN2CCN(CC2)Cc2cccc(c2)Nc2ncnc(n2)-c2ccnc(c2)CCCN1 [Compound 35]
3 (Score 3 = 60-80% inhibition),4 (Score 4 = >80% inhibition),> 8.00,4 (Score 4 = >80% inhibition),2 (Score 2 = 30-60% inhibition),4 (Score 4 = >80% inhibition),–,O=C1CN2CCN(CC2)Cc2cccc(c2)Nc2ncnc(n2)-c2ccnc(c2)CCCN1 [Compound 36]
3 (Score 3 = 60-80% inhibition),4 (Score 4 = >80% inhibition),> 8.00,4 (Score 4 = >80% inhibition),2 (Score 2 = 30-60% inhibition),4 (Score 4 = >80% inhibition),–,O=C1CN2CCN(CC2)Cc2cc(Cl)cc(c2)Nc2ncnc(n2)-c2ccnc(c2)CCCN1 [Compound 41]
4 (Score 4 = >80% inhibition),4 (Score 4 = >80% inhibition),> 8.00,4 (Score 4 = >80% inhibition),1 (Score 1 = 10-30% inhibition),4 (Score 4 = >80% inhibition),–,O=C1NCCCc2cccc(c2)-c2ncnc(n2)Nc2cccc(c2)CN[C@H]1CO [Compound 46]
2 (Score 2 = 30-60% inhibition),4 (Score 4 = >80% inhibition),> 8.00,3 (Score 3 = 60-80% inhibition),1 (Score 1 = 10-30% inhibition),4 (Score 4 = >80% inhibition),–,CCN1CC(=O)NCCCc2cccc(c2)-c2ncnc(n2)Nc2cccc(c2)C1 [Compound 54]
3 (Score 3 = 60-80% inhibition),4 (Score 4 = >80% inhibition),> 8.00,4 (Score 4 = >80% inhibition),1 (Score 1 = 10-30% inhibition),3 (Score 3 = 60-80% inhibition),–,O=C1CN2CCN(CC2)Cc2cccc(c2)Nc2ncnc(n2)-c2ccc(F)c(c2)CCCN1 [Compound 66]
